What was measured:
[1] = system: HCMV (strain AD169); experiment: Inhibition of HCMV replication, ELISA assay (Hs-68 cells); assay type: cell-based, Human Cytomegalovirus (HCMV); conditions: read-out: ELISA CMV EC50
Experimental: (§1) C) Inhibition of Human Cytomegalovirus (HCMV) Replication
(§2) The effect of compounds on the replication of HCMV has been measured by using an ELISA-based assay (ELISA) and a plaque reduction assay (PRA).
Hs-68 cells (ATCC # CRL 1635) were seeded in 96 well microtiter plates at 10,000 cells/well in 100 μL of DMEM medium (Gibco Canada Inc.) supplemented with 10% fetal bovine serum (FBS, Gibco Canada Inc.). The plates were incubated for 3 days at 37° to allow the cells to reach 80-90% confluency prior to the assay.
The medium was removed from wells by aspiration. The cells then were infected at a multiplicity of infection (MOI) of 0.01 PFU/cell with 50 μL of HCMV (strain AD169, ATCC VR-538) in DMEM medium supplemented with 5% heat inactivated FBS (assay medium). The virus was allowed to adsorb to cells for 2 h at 37°. Following viral adsorption, the medium was removed from the wells by aspiration. The cells were washed twice with 200 μL of assay medium to remove unabsorbed virus. The cells were then incubated with or without 100 μL of appropriate concentrations of test reagent in assay medium. After 8 days of incubation at 37°, the extent of viral replication was determined by an ELISA assay which detects the late structural protein p28 of HCMV.
Eight days after infection, the medium was aspirated from the wells. Non-specific binding sites were blocked by adding 200 μL of phosphate buffered saline containing 1% (w/v) bovine serum albumin (blocking buffer) to each well and incubating the plates for 30 min at room temperature. After removal of the blocking buffer by aspiration, the cells were fixed with 100 μL of cold ethanol-acetone solution (95:5) per well. The plates were placed at -20° for 30 min. The plates were washed 4 times with phosphate buffered saline containing 0.05% (v/v) polyoxyethylene sorbitan monolaurate (Tween®). Thereafter, 100 μL of mAb UL99 (Advanced Biotechnologies Inc., #13-130-100) recognizing HCMV protein p28 was added to each wells and plates were incubated for 2 h at room temperature. The plates were washed four times with 200 μL of the above-noted phosphate buffered saline/Tween-20® solution. The cells were then incubated with 100 μL of sheep anti-mouse IgGγ horseradish peroxidase conjugated for 2 h at room temperature. The plates were then washed four times with 200 μL of above-noted phosphate buffered saline/Tween-20® solution. Thereafter, 100 μL of ortho phenylenediamine dihydrochloride (OPD, Gibco Canada Inc.) solution was added to each well and the plates were agitated on a microplate shaker for 30 min in the dark. Color development was monitored at 450 nm using a microplate spectrophotometer.
The SAS program was used to calculate the % inhibition of viral replication and to generate EC50 values.
The EC50 values obtained according to this assay method for certain thiazolylphenyl derivatives of this invention are listed in the following tables under the heading ELISA CMV.

[2] = system: HSV-1 strain F or KOS; experiment: Inhibition of herpes simplex virus (HSV-1) replication in cell culture (BHK-21 cells, glycoprotein C ELISA); assay type: cell-based
Experimental: B) Inhibition of Herpes Simplex Virus (HSV-1) Replication in Cell Culture
BHK-21 cells clone 13 (ATCC CCL10) were incubated for two days in 850 cm^2 roller bottles (2×10^7 cells/bottle) with A-MEM medium (Gibco Canada Inc., Burlington, Ontario, Canada) supplemented with 8% (v/v) fetal bovine serum (FBS, Gibco Canada, Inc.). The cells were trypsinized and then 3,000 cells in 100 μL of fresh medium were transferred into each well of a 96-well microtiter plate. The cells were incubated at […] for a period of 3 days to reach a density of 50,000 cells per well. The cells were washed twice with 100 μL of α-MEM supplemented with 2% heat inactivated FBS and incubated for 1-2 hours in 100 μL of the same medium.
Thereafter, the cells were infected with HSV-1 strain F or KOS (multiplicity of infection =0.05 PFU/cell) in 50 μL of α-MEM supplemented with 2% heat inactivated FBS. Following one hour of virus absorption at 37°, the medium was removed and the cells were washed with α-MEM supplemented with 2% heat inactivated FBS (2×100 μL). The cells were incubated with or without 100 μL of the appropriate concentration of test reagent in α-MEM medium supplemented with 2% heat inactivated FBS. After 24 hours of incubation at 37°, the extent of viral replication was determined by an ELISA assay; for instance, the following assay that detects the late glycoprotein C of HSV-1.
Cells were fixed in the microtiter plate with 100 μL of 0.063% glutaraldehyde in phosphate buffered saline for 30 min at room temperature. The microtiter plate was then washed once with casein blocking solution and blocked with 200 μL of the same solution for one hour at room temperature. Thereafter, 100 μL of mAb C11 recognizing the glycoprotein C of HSV-1 (see E. Trybala et al., Journal of General Virology, 1994, 75, 743) was added to each well for two hours at room temperature. The plate was washed three times with phosphate buffered saline containing 0.05% polyoxyethylene (20) sorbitan monooleate. The cells were incubated with 100 μL of sheep anti-mouse IgG horseradish peroxidase for one hour at room temperature in the dark.
The plate was washed three times with 200 μL of the above-noted phosphate buffer saline preparation, and then once with 0.1 M sodium citrate (pH 4.5). Thereafter, 100 μL of orthophenylenediamine dihydrochloride (OPD, Gibco, Canada Inc.) was added to each well. The plate was agitated on a microplate shaker for 30 min in the dark. Color development was monitored at 450 nm using a microplate spectrophotometer.
SAS was used to calculate % inhibition of viral replication and to generate EC50 values.

[3] = system: HCMV (strain AD169); experiment: Inhibition of HCMV replication, plaque reduction assay (PRA, Hs-68 cells); assay type: cell-based, Human Cytomegalovirus (HCMV); conditions: read-out: PRA CMV EC50
Experimental: as §1, §2
Hs-68 cells (ATCC # CRL 1635) were seeded in 12-well plates at 83,000 cells/well in 1 mL of DMEM medium (Gibco Canada Inc.) supplemented with 10% fetal bovine serum (FBS, Gibco Canada Inc.). The plates were incubated for 3 days at 37° to allow the cells to reach 80-90% confluency prior to the assay.
The medium was removed from the cells by aspiration. The cells were then infected with approximately 50 PFU of HCMV (strain AD169, ATCC VR-538) in DMEM medium supplemented with 5% inactivated FBS (assay medium). The virus was allowed to adsorb to cells for 2 h at 37°. Following viral adsorption, the medium was removed from the wells by aspiration. The cells were then incubated with or without 1 mL of appropriate concentrations of test reagent in assay medium. After 4 days of incubation at 37°, the medium was exchanged with fresh medium containing test compound and 4 days later the cells were fixed with 1% aqueous formaldehyde and stained with a 2% crystal violet solution in 20% ethanol in water. Microscopic plaques were counted using a stereomicroscope. Drug effects were calculated as a percent reduction in the number of plaques in the presence of each drug concentration compared to the number observed in the absence of drug. Ganciclovir was used as a positive control in all experiments.
The EC50 values obtained according to this assay for certain thiazolyl derivatives of this invention are listed in the following tables under the heading PRA CMV.

[4] = target: T1, HSV-1 helicase-primase (Human herpesvirus 1, UniProt P10189+P10236); experiment: HSV-1 DNA-dependent ATPase assay (inhibition of HSV-1 helicase-primase); assay type: biochemical
T1 construct: made in house; host or cells: Sf21 insect cells triply infected with recombinant baculoviruses (UL5, UL8, UL52)
Text: A) HSV-1 DNA-Dependent ATP Assay (an in Vitro Assay Based on the Inhibition of HSV-1 Helicase-primase).
HSV-1 helicase-primase holoenzyme was produced in triply infected Sf21 cells using recombinant baculoviruses expressing the UL5, UL8 and UL52 helicase-primase subunits, as described by S. Dracheva et al., J. Biol. Chem. 1995, 270, 14148. The crude enzyme was purified by ammonium sulfate precipitation, Source 15Q® chromatography and Sephacryl® S-300 HR gel filtration (both purification systems can be obtained from Pharmacia Biotech Inc., Montreal, Quebec, Canada), see S. Dracheva et al., supra.
The DNA-dependent ATPase assay, described by J. J. Crute et al., Nucleic Acids Res. 1988, 16, 6585, was modified and used to evaluate the capability of the compounds of Group 1-formula 1 to inhibit HSV-1 helicase-primase activity. The reaction mixtures (80 μL each) contained 40 mM 4-(2-hydroxyethyl)-1-piperazineethanesulfonic acid (HEPES, pH 7.5), 10% (v/v) glycerol, 5.5 mM MgCl2, 1 mM DL-dithiothreitol (DTT), 50 μg/mL acetylated bovine serum albumin, 3.3% (v/v) DMSO, 4 mM ATP, 25 μM single-stranded M13 DNA hybridized to double-tailed 68-mer oligonucleotide and 3 μg/mL HSV-1 helicase-primase. After incubation for 20 min at 34°, formation of inorganic phosphate from hydrolysis of ATP was monitored spectrophotometrically at 650 nm using acidic ammonium molybdate/malachite green reagent, P. A. Lanzetta et al., Anal. Biochem. 1979, 100, 95. DNA-dependent ATPase activity was calculated from the net absorbance change in the presence and absence of inhibition.

[5] = Human betaherpesvirus 5, AD169, Hs68, Group 1 Table 5 entries
[6] = Human betaherpesvirus 5, AD169, Hs68, Group 1 Table 1 entries
[7] = Human alphaherpesvirus 1, BHK-21, Group 1 Table 1 entries
[8] = Human betaherpesvirus 5, AD169, Hs68, Group 2 Table 1 entries

T1 sequence (P10192 whole entry): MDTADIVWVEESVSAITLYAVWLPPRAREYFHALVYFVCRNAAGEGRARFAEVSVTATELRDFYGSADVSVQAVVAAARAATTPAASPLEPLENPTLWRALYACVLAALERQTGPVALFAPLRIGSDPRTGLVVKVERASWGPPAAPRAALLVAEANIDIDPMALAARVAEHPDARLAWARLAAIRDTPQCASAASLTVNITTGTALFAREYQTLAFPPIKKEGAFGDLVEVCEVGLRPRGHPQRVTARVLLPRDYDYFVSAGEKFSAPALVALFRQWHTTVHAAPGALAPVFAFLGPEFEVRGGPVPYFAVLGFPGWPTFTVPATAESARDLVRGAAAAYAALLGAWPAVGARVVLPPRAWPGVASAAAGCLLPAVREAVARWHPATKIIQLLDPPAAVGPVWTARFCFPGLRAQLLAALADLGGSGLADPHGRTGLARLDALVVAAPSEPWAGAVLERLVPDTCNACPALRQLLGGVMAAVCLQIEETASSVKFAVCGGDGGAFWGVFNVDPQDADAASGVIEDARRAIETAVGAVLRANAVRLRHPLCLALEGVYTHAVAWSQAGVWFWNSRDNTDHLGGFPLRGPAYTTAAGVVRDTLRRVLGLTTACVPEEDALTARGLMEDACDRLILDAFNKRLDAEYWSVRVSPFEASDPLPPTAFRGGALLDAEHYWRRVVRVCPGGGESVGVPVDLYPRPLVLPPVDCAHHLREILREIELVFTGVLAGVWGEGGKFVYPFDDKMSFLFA
T1 sequence (P10236 whole entry): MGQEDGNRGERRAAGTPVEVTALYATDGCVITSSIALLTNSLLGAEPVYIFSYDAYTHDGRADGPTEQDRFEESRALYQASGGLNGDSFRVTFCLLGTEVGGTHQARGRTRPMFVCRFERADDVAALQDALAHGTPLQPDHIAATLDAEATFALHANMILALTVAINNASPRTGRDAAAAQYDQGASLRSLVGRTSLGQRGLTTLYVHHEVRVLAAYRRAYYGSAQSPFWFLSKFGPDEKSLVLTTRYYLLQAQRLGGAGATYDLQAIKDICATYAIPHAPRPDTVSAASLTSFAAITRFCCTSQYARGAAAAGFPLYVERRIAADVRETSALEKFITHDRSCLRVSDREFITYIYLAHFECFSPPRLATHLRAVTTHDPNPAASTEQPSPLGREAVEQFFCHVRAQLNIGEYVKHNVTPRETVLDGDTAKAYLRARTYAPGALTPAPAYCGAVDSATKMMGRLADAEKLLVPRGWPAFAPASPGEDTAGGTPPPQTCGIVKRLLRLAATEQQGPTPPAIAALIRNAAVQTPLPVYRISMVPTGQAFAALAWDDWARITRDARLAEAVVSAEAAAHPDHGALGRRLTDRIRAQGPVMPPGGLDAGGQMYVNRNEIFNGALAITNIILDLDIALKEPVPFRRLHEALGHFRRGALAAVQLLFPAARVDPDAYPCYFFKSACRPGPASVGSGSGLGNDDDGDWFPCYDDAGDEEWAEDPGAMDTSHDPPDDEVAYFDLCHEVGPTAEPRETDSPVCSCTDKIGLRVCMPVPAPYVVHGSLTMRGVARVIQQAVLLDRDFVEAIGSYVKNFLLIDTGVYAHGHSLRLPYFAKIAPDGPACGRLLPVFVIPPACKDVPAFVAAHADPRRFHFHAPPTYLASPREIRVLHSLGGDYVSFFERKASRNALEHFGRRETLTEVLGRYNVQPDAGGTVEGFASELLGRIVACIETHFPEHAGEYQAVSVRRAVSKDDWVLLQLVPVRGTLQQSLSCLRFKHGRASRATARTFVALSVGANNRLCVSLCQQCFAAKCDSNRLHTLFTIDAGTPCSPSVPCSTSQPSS
T1 sequence (P10189 whole entry): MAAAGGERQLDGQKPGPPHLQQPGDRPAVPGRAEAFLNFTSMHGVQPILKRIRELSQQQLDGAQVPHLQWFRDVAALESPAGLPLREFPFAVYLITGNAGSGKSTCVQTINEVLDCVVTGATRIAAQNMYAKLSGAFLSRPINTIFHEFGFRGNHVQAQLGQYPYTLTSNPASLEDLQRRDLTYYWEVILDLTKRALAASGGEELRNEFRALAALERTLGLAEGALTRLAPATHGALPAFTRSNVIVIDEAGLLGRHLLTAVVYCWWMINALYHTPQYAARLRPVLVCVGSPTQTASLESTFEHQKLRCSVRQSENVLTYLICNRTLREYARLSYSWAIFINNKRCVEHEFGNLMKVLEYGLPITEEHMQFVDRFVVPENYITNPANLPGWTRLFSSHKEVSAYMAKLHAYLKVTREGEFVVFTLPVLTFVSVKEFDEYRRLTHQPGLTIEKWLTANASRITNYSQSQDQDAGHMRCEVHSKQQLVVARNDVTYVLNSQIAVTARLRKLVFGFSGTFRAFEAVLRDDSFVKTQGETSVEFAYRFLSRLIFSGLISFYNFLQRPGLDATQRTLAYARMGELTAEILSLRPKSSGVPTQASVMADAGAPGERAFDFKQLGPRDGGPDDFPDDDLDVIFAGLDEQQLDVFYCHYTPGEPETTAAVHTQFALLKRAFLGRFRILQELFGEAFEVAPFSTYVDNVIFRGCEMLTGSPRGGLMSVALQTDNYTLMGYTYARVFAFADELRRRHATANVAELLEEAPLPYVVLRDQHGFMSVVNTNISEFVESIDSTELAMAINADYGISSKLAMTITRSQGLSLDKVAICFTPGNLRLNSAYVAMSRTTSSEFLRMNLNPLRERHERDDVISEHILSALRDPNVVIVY

Row | SMILES | EC50 [3, 6] [µM] | IC50 ([4]; Group 1 Table 1 entries) [µM] | also measured
1 | Nc1nc(-c2ccc(NC(=O)[C@@H](Cc3ccccc3)NC(=O)C3CCCCC3)cc2)cs1 [Example 2] |  |  | EC50 [1, 5]: 52 µM; EC50 ([2]; Human alphaherpesvirus 1, BHK-21, Group 1 Table 5 entries): 170 nM
2 | CN(C(=O)CNCc1ccccc1)c1ccc(-c2csc(N)n2)cc1 [Example 3] |  |  | EC50 ([3]; Human betaherpesvirus 5, AD169, Hs68, Group 1 Table 3 entries): 80 µM; IC50 ([4]; Group 1 Table 3 entries): 13 µM; EC50 ([2]; Human alphaherpesvirus 1, BHK-21, Group 1 Table 3 entries): 4000 nM
3 | Nc1nc(-c2ccc(NC(=O)CNCc3ccc(F)cc3)cc2)cs1 [Example 4] | 16 | 3.5 | EC50 [2, 7]: 1800 nM
4 | Nc1nc(-c2ccc(NC(=O)CCN(Cc3ccccc3)C(=O)c3cccnc3)cc2)cs1 [Example 6] |  |  | EC50 ([3]; Human betaherpesvirus 5, AD169, Hs68, Group 1 Table 2 entries): 22 µM; EC50 ([2]; Human alphaherpesvirus 1, BHK-21, Group 1 Table 2 entries): 4800 nM
5 | Nc1nc(-c2ccc(NC(=O)[C@@H]3CCCN3Cc3ccccc3)cc2)cs1 [Example 7] |  |  | EC50 ([1]; Human betaherpesvirus 5, AD169, Hs68, Group 1 Table 6 entries): > 33 µM; EC50 ([2]; Human alphaherpesvirus 1, BHK-21, Group 1 Table 6 entries): 1100 nM
6 | Nc1nc(-c2ccc(NC(=O)NCCc3ccccc3)cc2)cs1 [Example 13] |  |  | EC50 [3, 8]: > 4 µM; IC50 ([4]; Group 2 Table 1 entries): 37 µM
7 | C#CCNC(=O)Nc1ccc(-c2csc(N)n2)cc1 [Example 17] |  |  | EC50 [3, 8]: > 74 µM; IC50 ([4]; Group 2 Table 1 entries): 33 µM
8 | CN[C@H](Cc1ccccc1)C(=O)Nc1ccc(-c2csc(N)n2)cc1 [Example 18] |  |  | EC50 [3, 5]: > 48 µM; IC50 ([4]; Group 1 Table 5 entries): 24.5 µM
9 | Nc1nc(-c2ccc(NC(=O)CNC(=O)c3ccccn3)cc2)cs1 [Example 19] | 20 | 13 | EC50 [2, 7]: 4500 nM
10 | Nc1nc(-c2ccc(NC(=O)CNC(=O)c3cccnc3)cc2)cs1 [Example 20] | 60 | 23 | 
11 | Nc1nc(-c2ccc(NC(=O)CNC(=O)c3ccncc3)cc2)cs1 [Example 21] | > 71 | 4.2 | EC50 [2, 7]: 1300 nM
12 | Nc1nc(-c2ccc(NC(=O)N[C@H](CO)Cc3ccccc3)cc2)cs1 [Example 28] |  |  | EC50 [3, 8]: 30 µM; IC50 ([4]; Group 2 Table 1 entries): 6.6 µM
13 | Nc1nc(-c2ccc(NC(=O)CN(Cc3ccccc3)C(=O)C3CCCCCC3)cc2)cs1 [Example 37] | > 74 | 0.029 | EC50 [2, 7]: 2 nM
14 | Nc1nc(-c2ccc(NC(=O)CN(Cc3ccc(Cl)cc3)C(=O)C3CCCCC3)cc2)cs1 [Example 45] | 5.5 | 0.05 | EC50 [2, 7]: 1 nM
15 | NCC(=O)N(CC(=O)Nc1ccc(-c2csc(N)n2)cc1)Cc1ccccc1 [Example 71] | > 32 | 30 | 
16 | Nc1nc(-c2ccc(NC(=O)CN(Cc3ccccc3)C(=O)COc3ccccc3)cc2)cs1 [Example 120] | 15 | 0.54 | 
17 | Nc1nc(-c2ccc(NC(=O)CN(CCc3ccccc3)C(=O)c3ccncc3)cc2)cs1 [Example 125] | 80 | 0.159 | 
18 | Cc1ccccc1CN(CC(=O)Nc1ccc(-c2csc(N)n2)cc1)C(=O)Cc1cccs1 [Example 131] | 16 |  | 
19 | Cc1ccccc1CN(CC(=O)Nc1ccc(-c2csc(N)n2)cc1)C(=O)Cc1ccsc1 [Example 132] | 14 |  | 
20 | Cc1ccccc1CN(CC(=O)Nc1ccc(-c2csc(N)n2)cc1)C(=O)c1ccsc1 [Example 133] | 17 |  | 
21 | C[C@@H](c1ccccc1)N(CC(=O)Nc1ccc(-c2csc(N)n2)cc1)C(=O)c1cccnc1 [Example 134] | 18 | 0.26 | 
22 | C[C@H](c1ccccc1)N(CC(=O)Nc1ccc(-c2csc(N)n2)cc1)C(=O)Cc1ccccn1 [Example 136] | 31 | 4.2 | 
23 | C[C@H](c1ccccc1)N(CC(=O)Nc1ccc(-c2csc(N)n2)cc1)C(=O)c1ccncc1 [Example 137] | 49 | 0.98 | 

Reference: US6288091A, “Antiherpes virus compounds and methods for their preparation and use” (Boehringer Ingelheim Ltd., priority 1999, dated 2001)
